# Assay results: patent US20230183742A1, “Viral Vector Production” (Oxford BioMedica (UK) Limited, priority 2020, published 2023)
# Values joined by “and” are separate entries in the source; they are usually repeats but may differ in a detail not shown here. Equal values may be shown once. “Also recorded” adds a separate entry of the source. Read-outs that look alike come from different tables or passages of the source.
# Assays:
# Assay type in all cases: cell-based, human
# HEK293T cells [1] = details: single agent, FIG. 2; for concentration giving optimum vector production: induction 24 h post transfection
# HEK293T cells [2] = test system: HEK293T cells
# HEK1.65s cells [3] = experiment: Example 4: 40 mL shake flask vector production, titre by duplex QPCR integration assay; details: VRC vs VRC+55 nM prostratin, FIG. 10B
# HEK1.65s cells [4] = experiment: Example 3 Experiment 2: sodium butyrate x prostratin DOE in suspension HEK1.65s, 24-well plate, GFP titration and JMP model; details: for optimum predicted concentration of combined induction agents: prediction profiler, FIG. 9C
# HEK1.65s cells [5] = test system: HEK1.65s cells
# HEK1.65s cells [6] = details: for inducing effect on LV titre among HDAC inhibitors: HEK1.65s, 24-well plate, FIG. 7, sodium valproate at 3 mM, valeric acid at 10 mM
# HEK293T cells [7] = test system: HEK293T cells; remark: listed apart in the source
# HEK1.65s cells [8] = experiment: Example 3: cell viability measurements of induced HEK1.65s cells (Table 6); details: for Cell Viability (%): HEK1.65s; for Δ (cell viability vs No Induction Control): vs no induction control 78.8
# [9] = test system: suspension (serum-free) HEK293T cells; experiment: Example 8: GFP reporter expression from constitutive promoters in suspension HEK293T with or without prostratin, flow cytometry; details: 11 μM prostratin with 10 mM sodium butyrate, two pDNA input levels, FIG. 18
# HEK1.65s cells [10] = test system: HEK1.65s cells; remark: listed apart in the source
# HEK1.65s cells [11] = details: 11 μM prostratin + 8 mM sodium butyrate, 40 mL shake flask; FACS and integration QPCR, FIGS. 10A & B
# [12] = test system: HEK293T.1-65s suspension cells
# HEK293T cells [13] = experiment: FIG. 13/14: standard or MSD-mutated lentiviral vector production in HEK293T with modified U1 snRNA, titration and RT-PCR of aberrant splice product; details: modified U1 snRNA co-expressed during production of standard and MSD-mutated LVs
# [14] = 256U1 snRNA expression combined with 11 μM prostratin at induction
# [15] = single titre enhancing agent (256U1 expression or 11 μM prostratin), 10 mM sodium butyrate
# [16] = 11 μM prostratin with 10 mM sodium butyrate
molecule,measurement,setting,value
"O=C(CCCCCCC(=O)Nc1ccccc1)NO [SAHA, suberanilohydroxamic acid]",concentration giving optimum vector production,HEK293T cells [1],0.0025 mM
same,optimum concentration for vector induction,"HEK293T cells [2]; single agent, FIG. 4",0.001 mM
"CC(=O)O[C@@]12C[C@@H](C)[C@@]3(O)[C@@H](C=C(CO)C[C@]4(O)C(=O)C(C)=C[C@@H]34)[C@@H]1C2(C)C [prostratin, 12-Deoxyphorbol-13-acetate]",effect on vector titre,HEK293T cells [1],highest vector induction
same,effect of residual prostratin on titres from the integration assay,HEK1.65s cells [3],identical titres
same,increase of LV titre above optimum sodium butyrate (8 mM) alone,"HEK1.65s cells [4]; 11 μM prostratin with 8 mM sodium butyrate, DOE model optimum",1.93 fold and ~2 fold
same,increase of GFP-HIV LV titres in combination with HDAC inhibitors,"HEK1.65s cells [4]; Example 3 as summarised in Example 4, 24-well plate scale",≥ 2 fold
same,effect on titre in combination with sodium butyrate,HEK1.65s cells [4]; FIG. 8,marked positive effect on titre
same,lowest concentrations causing an increase in titre,HEK1.65s cells [4]; in combination with sodium butyrate,2 to 4 µM
same,optimum predicted concentration of combined induction agents,HEK1.65s cells [4],11 µM
same,increase in vector titre compared to the no induction control,HEK1.65s cells [4]; prostratin alone at 8-16 μM,~13 fold and > 10 fold
same,inducing effect relative to optimum sodium butyrate,HEK1.65s cells [4]; prostratin alone at 8-16 μM,approximately half the inducing effect of optimum sodium butyrate concentrations
same,"titre increase compared to standard production control, CAR #1 vector",HEK1.65s cells [5]; [14],125 fold
same,"titre increase compared to standard production control, CAR #2-T2A-GFP vector",HEK1.65s cells [5]; [14],4.5 fold
same,"titre increase compared to standard production control, CAR #2 vector",HEK1.65s cells [5]; [14],7.9 fold
same,"titre increase compared to standard production control, CAR #1 vector",HEK1.65s cells [5]; [15],24 fold
same,"titre increase compared to standard production control, CAR #2-T2A-GFP vector",HEK1.65s cells [5]; [15],2 fold
same,"titre increase compared to standard production control, CAR #2 vector",HEK1.65s cells [5]; [15],2.6 fold
same,effect on titre of addition alongside HDACi,"HEK1.65s cells [6]; prostratin 4-8 μM with HDACi, nearly all cases",increased titres
same,increase in vector titre,HEK293T cells [7]; 10 μM prostratin in combination with 10 mM sodium butyrate,92%
same,effect on induction of increasing prostratin from 1 to 10 μM,"HEK293T cells [7]; throughout all the tested HDAC inhibitors, FIG. 6",positive enhancement of induction
same,Cell Viability (%),"HEK1.65s cells [8]; 2 μM prostratin, condition 3, vector production period of 48 hours",79.4%
same,Δ (cell viability vs No Induction Control),"HEK1.65s cells [8]; 2 μM prostratin, condition 3",+0.6
same,Cell Viability (%),"HEK1.65s cells [8]; 16 μM prostratin, condition 9, vector production period of 48 hours",82.2%
same,Δ (cell viability vs No Induction Control),"HEK1.65s cells [8]; 16 μM prostratin, condition 9",+3.4
same,Cell Viability (%),"HEK1.65s cells [8]; 32 μM prostratin, condition 45, vector production period of 48 hours",79.8%
same,Δ (cell viability vs No Induction Control),"HEK1.65s cells [8]; 32 μM prostratin, condition 45",+1
same,effect on cell viability,"HEK1.65s cells [8]; prostratin 2-32 μM, vector production period of 48 hours",did not present any further loss in cell viability; also recorded: little cytotoxic effect; also recorded: no decrease in cell viability
same,titre relative to the no-induction control,HEK293T cells [2],approximately 4 fold
same,increase of MFI from GFP FACS of transduced cells,"HEK293T cells [2]; 16 μM prostratin at induction, residual 0.4 μM after 40-fold vector dilution",26%
same,MFI from GFP FACS of transduced cells,HEK293T cells [2]; 0.5 to 8 μM prostratin at induction,not observed to change
same,optimum concentration for vector induction,"HEK293T cells [2]; single agent, FIG. 4",0.016 mM
same,induction of GFP transgene expression from constitutive promoters,[9],induction of expression from the promoters; also recorded: clear induction
same,increase in EIAV-CMV-GFP titre compared to the control titre,HEK1.65s cells [10]; [16],2 fold
same,EIAV-CMV-GFP vector titre at harvest,HEK1.65s cells [10]; 11 μM prostratin with 10 mM sodium butyrate at induction,9.1E+05 TU/mL
same,vector titre relative to induction with sodium butyrate alone,HEK1.65s cells [11],2.4- to 2.9 fold
same,titres of MSD-mutated LV with Prostratin and 256U1 applied together,"[12]; 11 μM Prostratin + 256U1 co-transfection, versus standard LV without inducers",higher that standard LV production titres; also recorded: increased higher than standard SIN-LV vectors
same,increase in titres of MSD-mutated LV vectors,"[12]; 11 μM Prostratin added at the sodium butyrate step, HIV-MSD2KOm5-EFS-GFP or -EF1a-GFP, FIG. 15",5-10 fold
same,effect on titres of MSD-mutated and standard SIN-LV,[12]; [16],boosted titres
CCCCC(=O)O [valeric acid],concentration giving optimum vector production,HEK293T cells [1],20 mM
same,inducing effect on LV titre among HDAC inhibitors,HEK1.65s cells [6],some inducing effect
same,optimum concentration for vector induction,"HEK293T cells [2]; single agent, FIG. 4",10 mM
CC(=O)NCCCCCCNC(C)=O [HMBA],effect on titre in combination with prostratin and sodium butyrate,"HEK293T cells [7]; 8 mM HMBA, compared to conditions where HMBA was excluded",notable decrease
same,effect on titre in combination with alternate HDAC inhibitors,"HEK293T cells [7]; with sodium valproate, valeric acid or SAHA, FIG. 6",negative effects on titre
same,titre relative to the no-induction control,HEK293T cells [2],approximately 4 fold
same,effect on titre of combination with HDAC inhibitors,HEK293T cells [2]; compared with HDAC inhibitor alone,no or only marginal improvements in titres; also recorded: did not produce any positive effects on titre
same,optimum concentration for vector induction,"HEK293T cells [2]; single agent, FIG. 4",16 mM
"O=C(OC[C@H]1O[C@@H](OC(=O)c2cc(O)c(O)c(OC(=O)c3cc(O)c(O)c(O)c3)c2)[C@H](OC(=O)c2cc(O)c(O)c(OC(=O)c3cc(O)c(O)c(O)c3)c2)[C@@H](OC(=O)c2cc(O)c(O)c(OC(=O)c3cc(O)c(O)c(O)c3)c2)[C@@H]1OC(=O)c1cc(O)c(O)c(OC(=O)c2cc(O)c(O)c(O)c2)c1)c1cc(O)c(O)c(OC(=O)c2cc(O)c(O)c(O)c2)c1 [Tannic acid, tannic acid]",effect on vector titre,HEK293T cells [1],no measurable vector production
CCCC(=O)[O-].[Na+] [sodium butyrate],concentration giving optimum vector production,HEK293T cells [1],5 mM
same,optimum predicted concentration of combined induction agents,HEK1.65s cells [4],8000 µM
same,inducing effect on LV titre among HDAC inhibitors,HEK1.65s cells [6],highest LV titres
same,Cell Viability (%),"HEK1.65s cells [8]; 10 mM sodium butyrate, condition 35, vector production period of 48 hours",74.8%
same,Δ (cell viability vs No Induction Control),"HEK1.65s cells [8]; 10 mM sodium butyrate, condition 35",−4
same,loss in cell viability,"HEK1.65s cells [8]; sodium butyrate treated cells, vector production period of 48 hours",4%
CCCC(CCC)C(=O)[O-].[Na+] [sodium valproate],concentration giving optimum vector production,HEK293T cells [1],10 mM
same,inducing effect on LV titre among HDAC inhibitors,HEK1.65s cells [6],some inducing effect
same,optimum concentration for vector induction,"HEK293T cells [2]; single agent, FIG. 4",10 mM
"CCCCCCCCCCCCCC(=O)O[C@@H]1[C@@H](C)[C@@]2(O)[C@@H](C=C(CO)C[C@]3(O)C(=O)C(C)=C[C@@H]23)[C@@H]2C(C)(C)[C@]12OC(C)=O [PMA, Phorbol 12-myristate 13-acetate]",effect on vector titre,HEK293T cells [1],highest vector induction
same,optimum concentration for vector induction,HEK293T cells [2],3.2e-05 mM
same,titre relative to the no-induction control,HEK293T cells [2],approximately 4 fold
CC(/C=C/C(=O)NO)=C\[C@@H](C)C(=O)c1ccc(N(C)C)cc1 [TSA],effect on vector titre,HEK293T cells [1],failed to improve vector titres
"CC(=O)N[C@@H](CS)C(=O)O [NAC, N-Acetyl Cysteine]",effect on vector titre,HEK293T cells [1],no positive impact on titre
"256U1: modified U1 snRNA targeting nt256-270 (SL1 loop) of the HIV-1 packaging signal; expression construct SEQ ID NO: 22 (nucleic acid, DNA-based expression constructs for the modified U1 snRNAs) DNA: TAAGGACCAGCTTCTTTGGGAGAGAACAGACGCAGGGGCGGGAGGGAAAAAGGGAGAGGCAGACGTCACTTCCCCTTGGCGGCTCTGGCAGCAGATTGGTCGGTTGAGTGGCAGAAAGGCAGACGGGGACTGGGCAAGGCACTGTCGGTGACATCACGGACAGGGCGACTTCTATGTAGATGAGGCAGCGCAGAGGCTGCTGCTTCGCCACTTGCTGCTTCACCACGAAGGAGTTCCCGTGCCCTGGGAGCGGGTTCAGGACCGCTGATCGGAAGTGAGAATCCCAGCTGTGTGTCAGGGCTGGAAAGGGCTCGGGAGTGCGCGGGGCAAGTGACCGTGTGTGTAAAGAGTGAGGCGTATGAGGCTGTGTCGGGGCAGAGGCCCAAGATCTCATTTGCCGTGCGCGCTTGCAGGGGAGATACCATGATCACGAAGGTGGTTTTCCCAGGGCGAGGCTTATCCATTGCACTCCGGATGTGCTGACCCCTGCGATTTCCCCAAATGTGGGAAACTCGACTGCATAATTTGTGGTAGTGGGGGACTGCGTTCGCGCTTTCCCCTGGTTTCAAAAGTAGACTGTACGCTAAGGGTCATATCTTTTTTTGTTTTGGTTTGTGTCTTGGTTGGCGTCTTAAATGTTAA",effect on lentiviral vector titres,HEK293T cells [13],capable of increasing lentiviral vector titres
same,"titre increase compared to standard production control, CAR #1 vector",HEK1.65s cells [5]; [15],46 fold
same,"titre increase compared to standard production control, CAR #2-T2A-GFP vector",HEK1.65s cells [5]; [15],2.7 fold
same,"titre increase compared to standard production control, CAR #2 vector",HEK1.65s cells [5]; [15],2.5 fold
